Consider one compound from patent US20230183305A1, “KERATIN BD-11, PREPARATION METHOD THEREFOR AND PHARMACEUTICAL COMPOSITION AND USE THEREOF” (INSTITUTE OF MATERIA MEDICA, CHINESE ACADEMY OF MEDICAL …, priority 2019, published 2023).

The test system of this assay is tracheal phenol red excretion in ICR mice. Nature of the assay: Expectorant test, phenol red excretion method in mice. In kind it is in vivo, mouse. As to the method: • Animals: male ICR mice; • Drugs and reagents: Mucosolvan (ambroxol hydrochloride tablets), phenol red, sodium bicarbonate, protein BD-11; • Instruments: centrifuge (Sigma-3K15 type), balance (XS105DU type), Microplate tester (BIO-TEK type).
Experiment grouping: • Solvent control group; • Mucosolvan 30 mg/kg group; • Protein BD-11, 20 mg/kg group, 50 mg/kg group.
The animals were fasted and water was taken freely 16 hours before the experiment. Orally administered Mucosolvan and different doses of protein BD-11 (administration volume 10 ml/kg) in groups, and the solvent control group was given the same volume of distilled water. One hour later, 2.5% phenol red solution was injected intraperitoneally. Mice were sacrificed by neck dislocation after 30 minutes. Take a trachea from below the thyroid cartilage to the branch of the trachea, and put the trachea into 3 ml 5% NaHCO3 solution and let it stand for 3 hours. Take 1 ml of the supernatant and centrifuge at 3000 rpm for 5 minutes. Measure and record the absorbance at 546 nm. According to the standard curve of phenol red, the excretion of phenol red was calculated.
Record the time point of oral administration, the time point of intraperitoneal injection of 2.5% phenol red solution, and the time point of taking the trachea respectively; The absorbance of each group of samples was measured by the microplate reader at 546 nm, Calculate the excretion of phenol red according to the standard curve of phenol red. Calculate the mean and standard error of the data in each group, and use TTEST to compare the solvent control group with other groups, and P<0.05 is considered as a significant difference.
Give Mucosolvan (30 mg/kg) and different doses of protein BD-11 (20 mg/kg, 50 mg/kg). One hour later, 2.5% phenol red solution was intraperitoneally injected, and 30 minutes later, the mice were sacrificed by neck dislocation. Take the trachea from below the thyroid cartilage to the branch of the trachea, put the trachea into 3 ml of 5% NaHCO3 solution and let it stand for 3 hours, take 1 ml of supernatant, centrifuge at 3000 rpm for 5 minutes, measure and record the absorbance at 546 nm. According to the standard curve of phenol red, the excretion of phenol red was calculated.

Counter-ions that a name gives are not always drawn.

Regarding `Nc1c(Br)cc(Br)cc1CN[C@H]1CC[C@H](O)CC1` [Mucosolvan, ambroxol hydrochloride, reference compound], the Phenol red excretion (Mucosolvan 30 mg/kg oral, X±SEM, n=10) is 1.061 ± 0.117 µg/mL. For the same compound, the “Amount of phenol red excretion vs solvent control group” value (Mucosolvan 30 mg/kg, P<0.05) is recorded as “significantly increased”.
